What was measured:
Assay type in all cases: toxicity, cell-based
HEK-293T = assay: Incucyte cell viability with HEK293T; conditions: human, 10 µM, compound concentration 10 uM
Fibroblast = assay: Incucyte cell viability with human fibroblast; conditions: 10 µM, compound concentration 10 uM
U2OS = assay: Incucyte cell viability with U2OS; conditions: human, 10 µM, compound concentration 10 uM
Further: unitless GR value; below 1 slowed growth and below 0 cell loss.

CCn1c(-c2nc3cc(C(=O)N4CCCC(N)C4)ccc3n2C)cc2ccccc21.Cl (stereo unspecified)
Growth Rate (HEK-293T; 6 h, replicate number 1): 0.45
Growth Rate (HEK-293T; 6 h, replicate number 2): 0.09
Growth Rate (HEK-293T; 12 h, replicate number 2): 0.8
Growth Rate (HEK-293T; 18 h, replicate number 2): 0.89
Growth Rate (HEK-293T; 24 h, replicate number 2): 0.87
Growth Rate (Fibroblast; 6 h, replicate number 1): -0.88
Growth Rate (Fibroblast; 6 h, replicate number 2): 0.59
Growth Rate (Fibroblast; 12 h, replicate number 2): 0.96
Growth Rate (Fibroblast; 18 h, replicate number 2): 0.78
Growth Rate (Fibroblast; 24 h, replicate number 2): 0.77
Growth Rate (U2OS; 0 h, replicate number 1): -0.07
Growth Rate (U2OS; 0 h, replicate number 2): -0.69

Cn1cc(-c2ccc(-c3cncc(Cl)c3N3CCC4(CCNC4=O)CC3)cc2)cn1
Growth Rate (HEK-293T; 0 h, replicate number 2): 0.95
Growth Rate (HEK-293T; 6 h, replicate number 1): 0.13
Growth Rate (HEK-293T; 6 h, replicate number 2): 0.24
Growth Rate (HEK-293T; 12 h, replicate number 1): 0.3
Growth Rate (HEK-293T; 12 h, replicate number 2): 0.63
Growth Rate (HEK-293T; 18 h, replicate number 1): 0.34
Growth Rate (HEK-293T; 18 h, replicate number 2): 0.67
Growth Rate (HEK-293T; 24 h, replicate number 1): 0.5
Growth Rate (HEK-293T; 24 h, replicate number 2): 0.67
Growth Rate (Fibroblast; 0 h, replicate number 2): -0.3
Growth Rate (Fibroblast; 6 h, replicate number 1): 0.61
Growth Rate (Fibroblast; 12 h, replicate number 1): 0.75
Growth Rate (Fibroblast; 18 h, replicate number 1): 0.56
Growth Rate (Fibroblast; 18 h, replicate number 2): 0.87
Growth Rate (Fibroblast; 24 h, replicate number 1): 0.49
Growth Rate (Fibroblast; 24 h, replicate number 2): 0.8
Growth Rate (U2OS; 0 h, replicate number 2): 0.82
Growth Rate (U2OS; 6 h, replicate number 1): 0.58
Growth Rate (U2OS; 12 h, replicate number 1): 0.59
Growth Rate (U2OS; 18 h, replicate number 1): 0.96

C[C@H](CCOc1cccc(CC(=O)O)c1)N(Cc1cccc(C(F)(F)F)c1Cl)CC(c1ccccc1)c1ccccc1.Cl
Growth Rate (HEK-293T; 0 h, replicate number 1): -0.43
Growth Rate (HEK-293T; 18 h, replicate number 2): 1
Growth Rate (Fibroblast; 0 h, replicate number 1): 0.93
Growth Rate (Fibroblast; 6 h, replicate number 1): 0.72
Growth Rate (Fibroblast; 6 h, replicate number 2): 0.01
Growth Rate (Fibroblast; 12 h, replicate number 1): 0.72
Growth Rate (Fibroblast; 12 h, replicate number 2): 0.55
Growth Rate (Fibroblast; 18 h, replicate number 1): 0.83
Growth Rate (Fibroblast; 18 h, replicate number 2): 0.23
Growth Rate (Fibroblast; 24 h, replicate number 1): 0.64
Growth Rate (Fibroblast; 24 h, replicate number 2): 0.52
Growth Rate (U2OS; 0 h, replicate number 1): 0.53
Growth Rate (U2OS; 0 h, replicate number 2): -0.96
Growth Rate (U2OS; 6 h, replicate number 1): 0.93
Growth Rate (U2OS; 6 h, replicate number 2): 1
Growth Rate (U2OS; 18 h, replicate number 1): 0.83
Growth Rate (U2OS; 24 h, replicate number 1): 0.93

CCc1cncnc1N1CCN(Cc2nc3cc(C(F)(F)F)ccc3[nH]2)CC1
Growth Rate (HEK-293T; 6 h, replicate number 1): 0.41
Growth Rate (HEK-293T; 6 h, replicate number 2): 0.28
Growth Rate (HEK-293T; 12 h, replicate number 1): 0.53
Growth Rate (HEK-293T; 12 h, replicate number 2): 0.34
Growth Rate (HEK-293T; 18 h, replicate number 1): 0.65
Growth Rate (HEK-293T; 18 h, replicate number 2): 0.48
Growth Rate (HEK-293T; 24 h, replicate number 1): 0.88
Growth Rate (HEK-293T; 24 h, replicate number 2): 0.58
Growth Rate (Fibroblast; 0 h, replicate number 1): 0.88
Growth Rate (Fibroblast; 6 h, replicate number 1): 1
Growth Rate (Fibroblast; 6 h, replicate number 2): -0.99
Growth Rate (Fibroblast; 12 h, replicate number 1): -1
Growth Rate (Fibroblast; 12 h, replicate number 2): 0.78
Growth Rate (Fibroblast; 18 h, replicate number 1): 0.44
Growth Rate (Fibroblast; 24 h, replicate number 1): 0.31
Growth Rate (Fibroblast; 24 h, replicate number 2): 0.93
Growth Rate (U2OS; 0 h, replicate number 2): -0.83
Growth Rate (U2OS; 6 h, replicate number 1): 0.31
Growth Rate (U2OS; 6 h, replicate number 2): 0.19
Growth Rate (U2OS; 12 h, replicate number 1): 0.51
Growth Rate (U2OS; 12 h, replicate number 2): 0.49
Growth Rate (U2OS; 18 h, replicate number 1): 0.53
Growth Rate (U2OS; 18 h, replicate number 2): 0.57
Growth Rate (U2OS; 24 h, replicate number 1): 0.7
Growth Rate (U2OS; 24 h, replicate number 2): 0.84

CC(C)c1nc2c(c3c1[C@@H](c1ccc(C(F)(F)F)cc1)OC31CCOCC1)[C@@H](O)CC(C)(C)C2.Cl
Growth Rate (HEK-293T; 0 h, replicate number 1): 0.12
Growth Rate (HEK-293T; 6 h, replicate number 2): 0.11
Growth Rate (HEK-293T; 12 h, replicate number 1): 0.73
Growth Rate (HEK-293T; 12 h, replicate number 2): 0.61
Growth Rate (HEK-293T; 18 h, replicate number 1): 0.63
Growth Rate (HEK-293T; 18 h, replicate number 2): 0.97
Growth Rate (HEK-293T; 24 h, replicate number 1): 0.78
Growth Rate (HEK-293T; 24 h, replicate number 2): 0.8
Growth Rate (Fibroblast; 0 h, replicate number 1): -1
Growth Rate (Fibroblast; 6 h, replicate number 1): -0.53
Growth Rate (Fibroblast; 12 h, replicate number 1): -0.05
Growth Rate (Fibroblast; 12 h, replicate number 2): 0.76
Growth Rate (Fibroblast; 18 h, replicate number 1): 0.15
Growth Rate (Fibroblast; 24 h, replicate number 1): 0.49
Growth Rate (Fibroblast; 24 h, replicate number 2): 0.96
Growth Rate (U2OS; 6 h, replicate number 1): 0.88
Growth Rate (U2OS; 12 h, replicate number 2): 0.78
Growth Rate (U2OS; 18 h, replicate number 2): 0.78
Growth Rate (U2OS; 24 h, replicate number 2): 0.87

COC[C@H](O)Cn1c(=O)cnn(-c2ccc(Cl)c(C(=O)NCC3(O)CCCCCC3)c2)c1=O [CE-224535]
Growth Rate (HEK-293T; 0 h, replicate number 2): 0.38
Growth Rate (HEK-293T; 6 h, replicate number 1): 0.55
Growth Rate (Fibroblast; 0 h, replicate number 1): -0.26
Growth Rate (Fibroblast; 0 h, replicate number 2): -1
Growth Rate (Fibroblast; 12 h, replicate number 1): -1
Growth Rate (Fibroblast; 18 h, replicate number 1): -0.48
Growth Rate (U2OS; 0 h, replicate number 1): -0.6

C=CC(=O)Nc1ccc(C(=O)Nc2n[nH]c3c2CN(C(=O)N[C@H](CN(C)C)c2ccccc2)C3(C)C)cc1
Growth Rate (HEK-293T; 0 h, replicate number 1): -0.5
Growth Rate (HEK-293T; 6 h, replicate number 1): 0.11
Growth Rate (HEK-293T; 6 h, replicate number 2): -0.51
Growth Rate (HEK-293T; 12 h, replicate number 1): 0.02
Growth Rate (HEK-293T; 12 h, replicate number 2): -0.3
Growth Rate (HEK-293T; 18 h, replicate number 1): 0.02
Growth Rate (HEK-293T; 18 h, replicate number 2): -0.27
Growth Rate (HEK-293T; 24 h, replicate number 1): 0.03
Growth Rate (HEK-293T; 24 h, replicate number 2): -0.16
Growth Rate (Fibroblast; 0 h, replicate number 2): -0.72
Growth Rate (Fibroblast; 6 h, replicate number 2): 0.71
Growth Rate (Fibroblast; 12 h, replicate number 1): 0.56
Growth Rate (Fibroblast; 12 h, replicate number 2): 0.45
Growth Rate (Fibroblast; 18 h, replicate number 1): 0.18
Growth Rate (Fibroblast; 18 h, replicate number 2): 0.06
Growth Rate (Fibroblast; 24 h, replicate number 1): 0.19
Growth Rate (Fibroblast; 24 h, replicate number 2): -0.02
Growth Rate (U2OS; 0 h, replicate number 1): -1
Growth Rate (U2OS; 6 h, replicate number 2): 1
Growth Rate (U2OS; 12 h, replicate number 2): -0.41
Growth Rate (U2OS; 18 h, replicate number 1): 0.84
Growth Rate (U2OS; 18 h, replicate number 2): 0.97
Growth Rate (U2OS; 24 h, replicate number 1): 0.76

FC(F)(F)Oc1ccc(-c2ccc3nnc(C(F)(F)F)n3c2)cc1
Growth Rate (HEK-293T; 0 h, replicate number 1): 0.83
Growth Rate (HEK-293T; 0 h, replicate number 2): 0.64
Growth Rate (HEK-293T; 6 h, replicate number 1): 0.53
Growth Rate (HEK-293T; 18 h, replicate number 1): 1
Growth Rate (Fibroblast; 6 h, replicate number 1): -0.05
Growth Rate (Fibroblast; 6 h, replicate number 2): -1
Growth Rate (Fibroblast; 12 h, replicate number 1): -1
Growth Rate (Fibroblast; 12 h, replicate number 2): 0.76
Growth Rate (Fibroblast; 18 h, replicate number 1): 0.42
Growth Rate (Fibroblast; 18 h, replicate number 2): 0.75
Growth Rate (Fibroblast; 24 h, replicate number 2): 0.91
Growth Rate (U2OS; 6 h, replicate number 1): 0.08
Growth Rate (U2OS; 6 h, replicate number 2): 0.81
Growth Rate (U2OS; 12 h, replicate number 1): 0.82
Growth Rate (U2OS; 12 h, replicate number 2): 0.64
Growth Rate (U2OS; 18 h, replicate number 1): 0.74
Growth Rate (U2OS; 18 h, replicate number 2): 0.92
Growth Rate (U2OS; 24 h, replicate number 1): 0.91
Growth Rate (U2OS; 24 h, replicate number 2): 0.96

CC1(C)CCC[C@]2(C)[C@@H](C=O)C(C=O)=CC[C@@H]12 [POLYGODIAL]
Growth Rate (HEK-293T; 6 h, replicate number 1): -0.32
Growth Rate (HEK-293T; 6 h, replicate number 2): 0.55
Growth Rate (HEK-293T; 12 h, replicate number 1): 0.22
Growth Rate (HEK-293T; 12 h, replicate number 2): 0.7
Growth Rate (HEK-293T; 18 h, replicate number 1): 0.52
Growth Rate (HEK-293T; 18 h, replicate number 2): 0.81
Growth Rate (HEK-293T; 24 h, replicate number 1): 0.8
Growth Rate (HEK-293T; 24 h, replicate number 2): 0.87
Growth Rate (Fibroblast; 6 h, replicate number 2): -1
Growth Rate (Fibroblast; 12 h, replicate number 2): 0.42
Growth Rate (Fibroblast; 18 h, replicate number 1): -0.77
Growth Rate (Fibroblast; 18 h, replicate number 2): 0.83
Growth Rate (Fibroblast; 24 h, replicate number 1): 0.41
Growth Rate (Fibroblast; 24 h, replicate number 2): 0.73
Growth Rate (U2OS; 0 h, replicate number 1): 0.45
Growth Rate (U2OS; 0 h, replicate number 2): -0.79
Growth Rate (U2OS; 6 h, replicate number 2): 0.73
Growth Rate (U2OS; 12 h, replicate number 2): 0.57
Growth Rate (U2OS; 18 h, replicate number 2): 0.76
Growth Rate (U2OS; 24 h, replicate number 2): 0.88

CC1CCN(C(=O)[C@H](CCn2cccc2C#N)NS(=O)(=O)c2cccc3[nH]ccc23)CC1
Growth Rate (HEK-293T; 0 h, replicate number 1): -0.16
Growth Rate (HEK-293T; 0 h, replicate number 2): 0.25
Growth Rate (HEK-293T; 12 h, replicate number 1): 0.92
Growth Rate (Fibroblast; 12 h, replicate number 2): 0.9
Growth Rate (Fibroblast; 24 h, replicate number 2): 0.84
Growth Rate (U2OS; 0 h, replicate number 1): 0.73
Growth Rate (U2OS; 0 h, replicate number 2): 0.6
Growth Rate (U2OS; 6 h, replicate number 1): 0.98
Growth Rate (U2OS; 12 h, replicate number 1): 0.91
Growth Rate (U2OS; 12 h, replicate number 2): 0.81
Growth Rate (U2OS; 18 h, replicate number 1): 0.99
Growth Rate (U2OS; 18 h, replicate number 2): 0.91
Growth Rate (U2OS; 24 h, replicate number 1): 0.98
Growth Rate (U2OS; 24 h, replicate number 2): 0.97
